Legend:
[1] = system: NNK-induced lung tumorigenesis in A/J mice; test: NNK-induced lung tumorigenesis in A/J mice; format: in vivo; conditions: 25 mg/kg nebulized 30 min/day for eight weeks
Experimental: Induction of lung tumorigenesis by intraperitoneal (i.p.) injection on days 1, 3, and 5 with 50 mg/kg of NNK dissolved in saline was followed by nebulization of PB141 (25 mg/kg) or vehicle (saline) and delivery to cage air via a micropump nebulizer. After 8 weeks the lung was examined histologically following H&E staining. (A) Number of lung lesions. (B) Histology showing lung tumor incidence and burden. Data are representative of one of two independent experiments with n=9-11 mice per group.
A/J mice were injected intraperitoneally on days 1, 3, and 5 with 50 mg/kg of 4-methylnitrosamino-1-(3-pyridyl)-1-butanone (NNK; Chemsyn Science Laboratories, Lenexa, Kans.) dissolved in saline. The mice were then held for 8 weeks to allow development of preinvasive lesions: alveolar hyperplasias and adenomas. […]
Mice were euthanized following the eight-week treatment period. […] Lung lesions were quantified by determining the incidence and prevalence of pulmonary pleural surface tumors, counting both the right and left lungs of each mouse. […] Hyperplastic and neoplastic lesions of the lungs were scored according to the International Classification of Rodent Tumors in 6 or 7 sections per lung. Sections were further assessed for morphometry and Ki67 immunohistochemistry.

[2] = system: human lung adenocarcinoma cell lines (NCI-H661, NCI-H441 and NCIH1299); test: Proliferation (BrdU) and apoptosis (TUNEL) of NNK-treated lung adenocarcinoma cells; format: cell-based; conditions: pretreated 1 to 5 μM, then 1 μM NNK; data not shown
Experimental: For further in vitro studies, human lung adenocarcinoma cell lines (NCI-H661, NCI-H441 and NCIH1299) were obtained from American Type Culture Collection. Cells were treated with 1 μM NNK for 1 hr. In some experiments cells were pretreated with 1 to 5 μM PB141 before treatment with NNK. Cell proliferation was assessed by BrdU proliferation kit (Roche Applied Science). Apoptosis was assessed by TUNEL assay.

p65 subunit of NF-κB = target: T1, p65 subunit of NF-κB (Homo sapiens, UniProt Q04206); test: LPS-induced NF-κB p65 DNA-binding activity in BEAS-2B cells; format: cell-based; conditions: 1 h pre-treatment, then LPS 6 h
T1 construct: endogenous in cells; host or cells: BEAS-2B
Experimental: BEAS-2B cells were treated with varying concentrations of PB141 for 24 h, after which (A) Nrf2 activity was measured or (C) nuclear Nrf2 concentration was determined by Western blotting. (B) In other experiments cells were pretreated with varying concentrations of PB141 for 1 h, then with LPS (500 ng/ml) for 6 h. Cells were then isolated and activity of NF-κB was measured.
BEAS-2B cells were cultured in Dulbecco's modified Eagle's medium (DMEM) containing 10% heat-inactivated fetal bovine serum, penicillin, and streptomycin (100 IU/ml). Monolayer cultures were treated with different concentrations of PB141 for 24 h. Cells were then isolated and the DNA-binding activity of the antioxidant transcription factor Nrf2 was determined. The nuclear concentration of Nrf2 was also determined by Western blotting. […] In some experiments monolayer cultures were deprived of serum for 24 h, pre-treated with different concentrations of PB141 for 1 h, then exposed to LPS for 6 h. Nuclear proteins were prepared and were used to quantify DNA-binding activity of the p65 subunit of NF-κB.

[3] = system: chronic hypoxia-induced pulmonary hypertension in mice; test: Chronic hypoxia-induced pulmonary hypertension model; format: in vivo; conditions: 25 mg/kg nebulized during last 10 days of 3 weeks hypoxia
Experimental: CH-induced pulmonary hypertension was produced in mice by exposing them to chronic hypoxia (CH; FIO2 10%) or room air (N; control) for 3 weeks. During the last 10 days of exposure, PB141 (25 mg/kg) or vehicle (saline) was nebulized and delivered to cage air via a micropump nebulizer. Twenty-four hours following the last nebulization mice were anesthetized and the right internal jugular vein of each mouse was surgically exposed and cannulated with a pressure transducer that was advanced to record right ventricular pressure, then advanced further to measure pulmonary arterial pressure: (top left) mean pulmonary arterial pressure; (top right) right ventricular systolic pressure (RVSP); (bottom left) […]; (bottom right) right ventricular hypertrophy. Data are representative of one of two independent experiments with n=4-6 mice per group.
CH-induced pulmonary hypertension was produced in mice by exposing them to CH (FIO2 10%) or room air for 3 weeks. During the last 10 days of exposure, PB141 (25 mg/kg) or vehicle (saline) was nebulized and delivered to cage air via a micropump nebulizer. Twenty-four hours following the last nebulization lung samples were obtained. Graphs show medial wall thickness of a-SMA-positive acinar blood vessels and percent of non-muscularized, partially muscularized, and fully muscularized small vessels. Data are representative of one of two independent experiments with n=4-6 mice per group.
Pulmonary hypertension was induced in mice by exposing them to chronic hypoxia (FiO2 10%) for 3 weeks. Control mice breathed room air during the last 10 days of exposure, PB141 (25 mg/kg) or vehicle (saline) was nebulized into the cage air for 30 min via a nebulizer.
Twenty-four hours following the last PB141 administration, mice were anesthetized, and the right internal jugular vein of each mouse was surgically exposed and cannulated with a pressure transducer that was advanced to record right ventricular systolic pressure (RVSP), which is elevated in pulmonary hypertension. […] The heart was then excised and the right ventricle was separated from the left ventricle (including the septum). Each ventricle was weighted separately.
Twenty-four hours following the last PB141 administration, lung samples were obtained. Immunostaining for α-SMA, a key marker in pulmonary hypertension, was performed in paraffin sections of lung and the sections were examined microscopically. […] All these measures of vascular wall remodeling in small pulmonary vessels, the pathophysiology underlying pulmonary hypertension, were reduced by PB141 treatment (FIG. 20).

T1 sequence (Q04206 whole entry): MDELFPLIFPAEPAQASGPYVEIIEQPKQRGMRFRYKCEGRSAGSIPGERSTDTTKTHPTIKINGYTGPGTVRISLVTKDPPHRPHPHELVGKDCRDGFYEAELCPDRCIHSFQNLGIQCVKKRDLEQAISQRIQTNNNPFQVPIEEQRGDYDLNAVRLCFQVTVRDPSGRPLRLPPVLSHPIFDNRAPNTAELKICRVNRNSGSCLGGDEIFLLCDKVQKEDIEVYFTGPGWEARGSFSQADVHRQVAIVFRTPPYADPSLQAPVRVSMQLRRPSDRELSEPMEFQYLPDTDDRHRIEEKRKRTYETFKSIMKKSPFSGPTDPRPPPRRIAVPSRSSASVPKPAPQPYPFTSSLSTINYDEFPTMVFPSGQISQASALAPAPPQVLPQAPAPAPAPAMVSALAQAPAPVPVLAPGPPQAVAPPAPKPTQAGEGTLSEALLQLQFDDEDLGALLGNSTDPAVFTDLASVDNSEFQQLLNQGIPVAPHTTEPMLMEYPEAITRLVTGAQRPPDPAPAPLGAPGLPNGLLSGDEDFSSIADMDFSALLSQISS

## CC(=O)N[C@@H](CSC(CC(=O)CC(SC[C@H](NC(C)=O)C(=O)O)c1cnccn1)c1cnccn1)C(=O)O (stereo partly shown) [PB141]
[1]
  Inhibition of tumor progression, premalignant lung cancer, and cell proliferation: ~40%
[2]
  Apoptosis (TUNEL): induced apoptosis
  Cell proliferation (BrdU): significantly decreased
p65 subunit of NF-κB; 1 μM
  Inhibition of NF-κB activity at 1 μM: almost complete inhibition
p65 subunit of NF-κB; different concentrations
  NF-κB activity (p65 DNA-binding): inhibited NF-κB activity in a concentration-dependent manner
[3]
  Increase in ratio of right ventricular weight to left ventricle plus septum: significantly reduced
  Increase in right ventricular systolic pressure (RVSP): significantly smaller
  Measures of vascular wall remodeling (α-SMA-positive vessels, muscularization, median wall thickness): reduced
  Pulmonary arterial pressure: significantly smaller
  Pulmonary vascular resistance: significantly smaller

Source: patent US9862690B2, “Treatment of pulmonary and other conditions” (University of Pittsburgh—of the Commonwealth System of …, priority 2013, dated 2018)
